The target in this assay is T1, pyruvate dehydrogenase complex (PDC) (Homo sapiens, UniProt P08559+P09622+P10515).
T1 construct: endogenous in cells; host or cells: A549cisR and KB-3-1cisR cells (lysates; Abcam PDH Enzyme Activity Microplate Assay Kit)
T1 sequence (P08559 30-390): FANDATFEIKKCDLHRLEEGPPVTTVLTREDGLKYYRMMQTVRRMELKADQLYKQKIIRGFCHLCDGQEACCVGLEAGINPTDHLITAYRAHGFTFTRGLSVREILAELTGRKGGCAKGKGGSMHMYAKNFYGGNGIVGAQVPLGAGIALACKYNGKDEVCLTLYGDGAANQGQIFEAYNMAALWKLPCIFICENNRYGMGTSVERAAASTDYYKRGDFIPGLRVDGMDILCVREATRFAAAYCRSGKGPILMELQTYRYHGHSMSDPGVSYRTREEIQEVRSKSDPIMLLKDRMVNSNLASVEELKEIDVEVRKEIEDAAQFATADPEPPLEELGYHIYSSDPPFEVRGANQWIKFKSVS
T1 sequence (P10515 87-647): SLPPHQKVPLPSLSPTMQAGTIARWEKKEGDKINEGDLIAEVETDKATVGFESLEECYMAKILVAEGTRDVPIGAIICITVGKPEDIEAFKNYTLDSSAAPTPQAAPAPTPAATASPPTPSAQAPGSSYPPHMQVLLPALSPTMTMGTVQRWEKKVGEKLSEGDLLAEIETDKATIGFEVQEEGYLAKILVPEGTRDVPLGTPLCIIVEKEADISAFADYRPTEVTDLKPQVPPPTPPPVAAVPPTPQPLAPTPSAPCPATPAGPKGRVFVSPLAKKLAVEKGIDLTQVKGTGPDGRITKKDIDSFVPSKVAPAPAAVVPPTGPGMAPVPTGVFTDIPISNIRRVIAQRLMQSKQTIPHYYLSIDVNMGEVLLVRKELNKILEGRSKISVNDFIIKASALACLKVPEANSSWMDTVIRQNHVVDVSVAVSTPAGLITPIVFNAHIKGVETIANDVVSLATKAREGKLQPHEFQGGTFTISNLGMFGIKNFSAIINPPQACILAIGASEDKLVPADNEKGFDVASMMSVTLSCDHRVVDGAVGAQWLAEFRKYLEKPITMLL
T1 sequence (P09622 36-509): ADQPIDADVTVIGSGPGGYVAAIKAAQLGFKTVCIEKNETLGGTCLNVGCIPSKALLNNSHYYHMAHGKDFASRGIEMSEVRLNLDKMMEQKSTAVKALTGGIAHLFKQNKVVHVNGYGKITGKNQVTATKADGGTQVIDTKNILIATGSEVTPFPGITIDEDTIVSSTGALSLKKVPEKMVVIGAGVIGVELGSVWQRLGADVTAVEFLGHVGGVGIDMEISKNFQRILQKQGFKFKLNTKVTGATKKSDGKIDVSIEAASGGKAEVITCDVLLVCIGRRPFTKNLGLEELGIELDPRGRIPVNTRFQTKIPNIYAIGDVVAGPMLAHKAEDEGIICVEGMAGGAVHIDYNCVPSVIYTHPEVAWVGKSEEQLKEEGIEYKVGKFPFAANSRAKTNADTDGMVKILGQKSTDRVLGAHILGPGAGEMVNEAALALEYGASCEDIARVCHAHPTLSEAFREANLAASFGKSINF
Kind of assay: PDC activity (PDH enzyme activity microplate assay). The class given is cell-based. The settings on record: cisplatin 24 h, NADH production from PDH reaction, normalised, n=1-3: biological replicates, listed as cis. How it is done: Cellular metabolic states were examined through various assays. […] Intracellular H2O2, NADPH, acetyl-CoA, and GSH/GSSG ratios were quantified using commercial assay kits as listed in the Reagents. Intracellular ATP levels were determined utilizing the ATP bioluminescent somatic cell assay and normalized to the total protein concentrations. The de novo synthesized RNA and proteins were assessed in cancer cells using commercial assays following the manufacturer’s protocols. In brief, O-propargyl-puromycin or uridine analog, 5-EU, was applied to stop translation or modify RNA. Polypeptides or modified RNA were measured using fluorescent azide with Ex/Em at 494/521 nm. PDC activity was determined by measuring the reduction of NAD+ to NADH during the conversion of pyruvate into acetyl-CoA. To estimate the activity of the pyruvate dehydrogenase complex (PDC), PDH (E1 subunit) activity was measured using the Pyruvate Dehydrogenase Enzyme Activity Microplate Assay Kit (Abcam) according to the manufacturer’s instructions. Briefly, A549^cisR and KB-3-1^cisR cells with or without DLAT knockdown were harvested, washed with PBS, and lysed using the supplied detergent solution. After quantifying protein concentration, lysates were diluted to 10 mg/ml in 1 ⅹ buffer, and 200 μl of assay solution was added to each well, and absorbance at 450 nm was measured kinetically every 30 s for 30 min at room temperature using a microplate reader.

“And” between values parts separate entries of the source, which are not always exact repeats. Identical values can stand only once.

For the compound `N.N.[Cl][Pt][Cl]` [cisplatin], the PDC activity is, setting by setting: (A549cisR pLKO.1) 0.9844 and 1.125 and 1.078; (A549cisR shDLAT) 0.375 and 0.4219; (KB-3-1cisR pLKO.1) 1.12 and 1.073; (KB-3-1cisR shDLAT) 0.06728 and 0.05145 and 0.04749.
